Laboratory results: patent US10124019B2, “Compositions and their use for removing cholesterol” (Cornell University, priority 2009, dated 2018)
Read-outs that look alike come from different tables or passages of the source.

Experiments:
[1] = system: NPC1 human fibroblast GM18453; NPC2 human fibroblast GM18445; assay: HDAC inhibitor effect on LSO cholesterol, 48-hour treatment; format: cell-based; details: 37 nM
Experimental: Cells were treated in complete medium for two days (48 hours). The dashed horizontal line is 3SD below the mean for untreated cells. (A) results for NPC1 human fibroblast GM18453, (B) results for NPC2 human fibroblast GM18445.
Each data point in the plot is representative of a total of 32 images from two independent experiments. The standard deviation (SD) for DMSO is 0.07, error bar=SE. The dotted line represents the DMSO control.

human NPC1 cells = assay: Removal of cholesterol from LSOs by filipin staining and digital image analysis
Experimental: Graph showing the concentration and time dependence of the removal of cholesterol from LSOs of human NPC1 cells incubated with the indicated concentrations of MβCD in complete medium for 1-4 days.
Graph showing concentration of cholesterol from LSOs of NPC1 cells incubated with 0.33 mM MβCD for one hour under various conditions (i.e., no FBS, 10% FBS, and cholesterol-loaded MβCD (i.e., “MbCD/cholest.”), and these with either no chase or a 24 hour chase). At the end of the incubation, cells were rinsed thoroughly, and returned to complete medium for 24 hours.
Graph comparing the cholesterol-lowering ability of MβCD and a MβCD-dextran composition of the instant invention. Human NPC1 cells were incubated with MβCD (●) or Dextran-PEG-MbCD (O) for 39 hours. The polymers had about two MβCDs per polymer, and the concentration is the MβCD concentration.
(A) Cells were treated for 2 days with 50 μM MβCD or 50 μM MβCD conjugated to dextran fixed with paraformaldehyde, stained, and imaged. Cholesterol accumulation in LSOs was measured by quantifying filipin fluorescence. Data represent averages±SEM of one representative experiment (n=8, where n is total number of wells per condition used for quantification).
In this experiment, studies were conducted to determine the effects of MβCD on NPC1 and NPC2 cells. […] The cells were then rinsed and incubated in complete medium for 24 hours. […] To further emphasize this, the one-hour loading pulse was conducted with cholesterol-loaded MβCD, which would actually increase the cellular cholesterol during the loading period.

[2] = system: NPC1- or NPC2-deficient cell lines; assay: Cholesterol esterification by ACAT (BODIPY-C12); format: cell-based, human; details: S58-035 at 10 μg/mL
Experimental: FIG. 12 A, B. Charts showing cholesterol esterification by ACAT. Cyclodextrin effects on cholesterol esterification in NPC1 (A) and NPC2 (B) mutant cells. Cells were treated for 1 hour with 3 mM MβCD or HPβCD and then allowed to recover in growth medium for 16 hours. Cells were then incubated with 3 μM 4,4-difluoro-4-bora-3a,4a-diaza-s-indacene-dodecanoic acid (BODIPY-C12) for 6 hours. The ratio of cholesteryl-BODIPY-C12 ester (CE)/BODIPY-C12 acid (FA) after TLC separation was measured and normalized to the average control value. ACAT inhibitor S58-035 was added, where indicated, at 10 μg/mL. For NPC1-defective cells, the average ratio was 0.110±0.007, which corresponded to 3.73±0.22 fmol CE formed per μg cell protein during 6 hours. Corresponding values for NPC2-defective cells were 0.089±0.003 and 2.50±0.24 fmol/μg.
To measure cholesterol levels within the endoplasmic reticulum in response to brief CD treatments, cholesterol esterification was measured by ACAT (FIG. 12). Increased esterification of cholesterol was observed several hours after a short (1-hour) CD treatment of NPC1- or NPC2-deficient cell lines. […] Corresponding reductions in cholesterol accumulation upon MβCD treatment, as measured by the LSO filipin assay, are shown in FIG. 13.

NPC1 fibroblast GM03123 = assay: HDAC inhibitor dose and time dependence on LSO cholesterol; format: cell-based, human
From the text: FIG. 19. Plots showing the dose and time dependence for each of the studied HDACi compounds as a function of time on NPC1 fibroblast GM03123.
Dose and time dependence for each of the studied HDACi compounds as a function of time on NPC1 fibroblast GM03123 are shown in the plots of FIG. 19. Each data point in the plot is representative of a total of 32 images from two independent experiments. The SD for DMSO is 0.07, error bar=SE. The dotted line represents the DMSO control.

GM03123 (NPC1) cells = assay: LSO filipin assay of cholesterol accumulation, NPC1 mutant fibroblasts; format: cell-based, human
Experimental: (§1) FIGS. 5 A-D. Charts showing quantification of CD effects on cholesterol accumulation in NPC1 and NPC2 mutant cells. The filipin fluorescence in LSOs was measured in NPC1 (A and B) and NPC2 (C and D) mutant cells treated with either MβCD (A and C) or HPβCD (B and D) for 1-4 days.
(§2) FIG. 6. Chart comparing cholesterol accumulation as measured by the LSO assay in NPC1-defective, NPC2-defective, and apparently normal human fibroblasts. […] At the end of the experiment, cells were fixed with 1% PFA and stained with 50 μg/mL filipin. Images were acquired using an ImageXpress MICRO imaging system with a 10× objective. Quantification of filipin labeling of the LSOs was performed as described previously (Pipalia N H, Huang A, Ralph H, Rujoi M, Maxfield FR (2006) Automated microscopy screening for compounds that partially revert cholesterol accumulation in Niemann-Pick C cells. J. Lipid Res. 47:284-301).

GM18455 (NPC2) cells = assay: LSO filipin assay of cholesterol accumulation, NPC2 mutant fibroblasts; format: cell-based, human
Experimental: as §1, §2

NPC mutant cells = assay: BMP accumulation by anti-BMP immunofluorescence; format: cell-based, human; details: 0.9 mM CD for ≈1 day (FIG. 15)
Experimental: FIGS. 15 A-C. CD effects on BMP accumulation in NPC mutant cells. BMP levels were quantified using fluorescence microscopy from images obtained with a 20× objective of cells stained with anti-BMP antibody and AlexaFluor488-conjugated secondary antibody in NPC1 (A), NPC2 (B) mutant, and 1 μM U18666A-treated normal (C) cells. Cells were incubated with 0.9 mM CD for ≈1 day.

[3] = system: NPC1 and NPC2 mutant cells; assay: LSO filipin staining after cyclodextrin treatment, withdrawal and acute treatment; format: cell-based, human; details: for cholesterol accumulation detected by filipin labeling: 300 μM CD for 1 day (FIG. 4); for LSO values one more day after CD removal versus fixed immediately / LSO cholesterol accumulation after three days without extracellular CD: 1 day treatment; for LSO values one more day after CD removal versus fixed immediately: then 1 day in growth medium without CD; for LSO cholesterol accumulation after three days without extracellular CD: then three days in serum containing medium; for level to which LSO cholesterol accumulation is reduced: low micromolar concentrations, 1-4 days (FIG. 5)
Experimental: FIG. 4. Micrographs showing the effect of CDs on cholesterol accumulation in NPC1- and NPC2-deficient cells. (A) Background and shading corrected images of untreated (a and b), MβCD-treated (c and d), or HPβCD-treated (e and f) GM03123 NPC1 cells (a, c, and e) or GM18455 NPC2 (b, d, and f) mutant cells. NPC mutant cells were treated with 300 μMCD for 1 day. (B) Untreated, apparently normal GM05659 cells, shown for comparison. (Scale bars, 100 μm.)
FIGS. 8 A-D. Charts showing persistence of CD effects after treatment. NPC1 (A and B) and NPC2 (C and D) treated with various concentrations of MβCD (A and C) and HPβCD (B and D) for 1 day and then fixed (0 days after 24 h treatment), or rinsed extensively, and allowed to grow in normal growth medium for up to three additional days after CD removal. Quantification of LSO filipin fluorescence power is shown.
FIG. 9 A, B. Filipin micrographs showing acute cyclodextrin effects on cholesterol accumulation in NPC1- and NPC2-deficient cells. Background and shading corrected images of untreated control (panels a-c), 0 h after treatment (panels d-f), or 24 h after treatment (panels g-i) for NPC1 (A) or NPC2 (B) mutant cells were obtained as in FIG. 6. […] (Scale bars, 100 μm.)
FIGS. 10 A-D. Short-term MβCD treatment. […] Cells were either fixed immediately or rinsed extensively and returned to growth medium for 24 hours. Quantification of LSO filipin fluorescence power is shown (A and C). Numeric data represent averages±SEM of three independent experiments normalized to control (untreated) average value for each experiment. *P<0.0001 vs. control (n=12, where n is total number of wells used for quantification). Filipin images of NPC1 (B) or NPC2 (D) mutant cells treated with MβCD/cholesterol are shown. (Scale bars, 100 μm.)
To determine whether the CD-mediated decrease in cholesterol accumulation would be sustained after the compound has been removed from the culture medium, NPC1 and NPC2 mutant cells were treated for 1 day with varying concentrations of MβCD or HPβCD (FIG. 8). The cells were then washed extensively to remove the compounds and returned to growth medium for up to three days.
To determine whether the reduction of free cholesterol in LSOs of NPC-defective cells resulted from extraction of cholesterol by CD from the PM or from inside the LSOs, this experiment acutely treated cells for one hour with MβCD in medium without serum (to extract cholesterol from the PM), MβCD in medium plus 10% FBS (to exchange cholesterol between serum lipoproteins and the PM (V. M. Atger, et al. (1997), J. Clin. Invest., 99:773-780)), or MβCD loaded with cholesterol (≈5:1 (MβCD/cholesterol) ratio) to overload cells with cholesterol.

[4] = system: U18666A-treated GM05659 cells
Experimental: (§3) Cells were plated in 384-well assay plates at a density to produce ≈80-90% confluency by experiment completion and treated with U18666A at indicated concentrations for 24 hour before addition of various concentrations of either MβCD or HPβCD for another 24 hours, during which indicated U18666A levels were maintained. At the end of the experiment, cells were fixed with 1% PFA and stained with 50 μg/mL filipin. Images were acquired using an ImageXpressMICRO imaging system with a 10× objective. […] (A) Cholesterol accumulation, as measured by the LSO filipin assay, at different concentrations of U18666A. MβCD (B) and HPβCD (C) LSO filipin dose-response curves at three different U18666A concentrations. […] Data represent averages±SEM of two independent experiments (n=12 for control and n=6 for treated, where n is total number of wells per condition used for quantification).

[5] = system: U18666A-treated GM05659 cells; assay: LSO filipin assay in U18666A-treated apparently normal fibroblasts; details: read-out: EC50 (μM), 50% reduction in LSO filipin, cyclodextrin 1 day
Experimental: as §3

[6] = system: NPC1- or NPC2-deficient cell lines; details: literature study, cultured NPC1- and NPC2-deficient cells; cited from earlier work
npc1−/− mice = details: cited from earlier work
[7] = read-out: EC50 (μM), 50% reduction in LSO filipin, 1 day of treatment
[8] = read-out: EC50 (μM), 50% reduction in LSO filipin, 2 days of treatment
[9] = read-out: EC50 (μM), 50% reduction in LSO filipin, 3 days of treatment
[10] = read-out: EC50 (μM), 50% reduction in LSO filipin, 4 days of treatment

Row | EC50 [4] [µM] | Compound | EC50 (GM03123 (NPC1) cells; [7]) [µM] | EC50 (GM03123 (NPC1) cells; [8]) [µM] | EC50 (GM03123 (NPC1) cells; [9]) [µM] | EC50 (GM03123 (NPC1) cells; [10]) [µM] | EC50 (GM18455 (NPC2) cells; [7]) [µM] | EC50 (GM18455 (NPC2) cells; [8]) [µM] | EC50 (GM18455 (NPC2) cells; [9]) [µM] | EC50 (GM18455 (NPC2) cells; [10]) [µM] | BMP accumulation (NPC mutant cells) | cholesterol accumulation detected by filipin labeling [3] | LSO values one more day after CD removal versus fixed immediately [3] | LSO cholesterol accumulation after three days without extracellular CD [3] | level to which LSO cholesterol accumulation is reduced [3] | EC50 ([5]; U18666A 1,000 nM) [µM] | EC50 ([5]; U18666A […]) [µM] | further results
1 | – | CC(/C=C/C(=O)NO)=C\[C@@H](C)C(=O)c1ccc(N(C)C)cc1 [trichostatin A] | – | – | – | – | – | – | – | – | – | – | – | – | – | – | – | reduction of cholesterol in the LSOs [1]: significantly effective
2 | – | MβCD-NH-(PEG)3-CONH-aminodextran [MβCD-dextran] | – | – | – | – | – | – | – | – | – | – | – | – | – | – | – | reversal of cholesterol accumulation in LSOs (filipin) (human NPC1 cells; 50 μM MβCD conjugated to dextran, 2 days (FIG. 11A)): can also reverse cholesterol accumulation; cholesterol-lowering in LSOs (human NPC1 cells; 39 hours, about two MβCDs per polymer (FIG. 3)): significant effect
3 | – | CCCCCCCCCC[Si](C)(C)CCC(=O)NC(Cc1ccc(C)cc1)c1ccccc1 (centres unmarked) [S58-035] | – | – | – | – | – | – | – | – | – | – | – | – | – | – | – | effect on CD-induced increase in cholesterol esterification [2]: inhibited
4 | – | O=C(CCCCCCC(=O)Nc1ccccc1)NO [SAHA, suberoylanilide hydroxamic acid] | – | – | – | – | – | – | – | – | – | – | – | – | – | – | – | reduction of cholesterol in the LSOs (NPC1 fibroblast GM03123): somewhat effective; reduction of cholesterol in the LSOs (NPC1 fibroblast GM03123; 10 μM, other experiments (not shown)): much more effective
5 | 6.2 | methyl β-cyclodextrin [MβCD] | 2.22 | 1.1 | 0.98 | 1.08 | 40.4 | 3.19 | 2.8 | 1.69 | significantly reduced BMP accumulation | reduced cholesterol accumulation | further decrease in LSO values | significant reduction | near-normal levels | 48.1 | 18.9 | concentration giving effects equivalent to those of HPβCD ([3]; relative to HPβCD): approximately three-fold lower concentrations; cholesterol in LSOs after 24 hr chase (human NPC1 cells; 1 hour pulse, 0.33 mM, then 24 hours in complete medium): significant reduction; time for the effect to reach steady state (human NPC1 cells; FIG. 1): about 2 days; EC50 (human NPC1 cells; read-out: concentration giving half-maximal effect on removal of cholesterol from LSOs, complete medium, 1-4 days (FIG. 1)): 2000 to 3000 nM
6 | 17.4 | hydroxypropyl-βCD [HPβCD] | 3.16 | 3.77 | 4.18 | 5.44 | 272 | 20.8 | 16.9 | 11.5 | significantly reduced BMP accumulation | reduced cholesterol accumulation | further decrease in LSO values | significant reduction | near-normal levels | 185 | 69.9 | ACAT-mediated esterification of cholesterol [6]: increased ACAT-mediated esterification of cholesterol; glycosphingolipid storage (npc1−/− mice; repeated injections): clearance of various glycosphingolipids; lifespan (npc1−/− mice; repeated injections): further prolongation of lifespan; lifespan (npc1−/− mice; single injections): can extend their lifespan; times higher concentrations required to achieve the same effect as MβCD (human NPC1 cells; relative to MβCD): 3-5 times
